Experiment [1] can be described thus: DRUGMATRIX: GABAA, Muscimol, Central radioligand binding (ligand: [3H] Muscimol). Particulars: Not Active = under 50% inhibition at 10 µM. The experiment is classed as cell membranes, Rattus norvegicus, Wistar, Brain, Membrane.
In experiment [2] the target is 5-hydroxytryptamine receptor 4 (Cavia porcellus, UniProt O70528). The experiment is classed as cell membranes, Dunkin-Hartley, Striatum, Membrane. Note: in other assays of this panel Not Active means under 50% inhibition at 10 µM.
Experiment [3] is described as follows: DRUGMATRIX: Phosphodiesterase PDE3 enzyme inhibition (substrate: [3H]cAMP + cAMP). The format is tissue-based, Homo sapiens. The following applies: platelet; Not Active = under 50% inhibition at 10 µM.
A short description of experiment [4]: DRUGMATRIX: Glutamate, NMDA, Phencyclidine radioligand binding (ligand: [3H] TCP). The experiment is classed as cell membranes, Rattus norvegicus, Wistar, Cerebral cortex, Membrane. Particulars: Not Active = under 50% inhibition at 10 µM.
Experiment [5] addresses T1, Angiotensin-converting enzyme (Oryctolagus cuniculus, UniProt P12822).
T1 sequence (P12822 whole entry): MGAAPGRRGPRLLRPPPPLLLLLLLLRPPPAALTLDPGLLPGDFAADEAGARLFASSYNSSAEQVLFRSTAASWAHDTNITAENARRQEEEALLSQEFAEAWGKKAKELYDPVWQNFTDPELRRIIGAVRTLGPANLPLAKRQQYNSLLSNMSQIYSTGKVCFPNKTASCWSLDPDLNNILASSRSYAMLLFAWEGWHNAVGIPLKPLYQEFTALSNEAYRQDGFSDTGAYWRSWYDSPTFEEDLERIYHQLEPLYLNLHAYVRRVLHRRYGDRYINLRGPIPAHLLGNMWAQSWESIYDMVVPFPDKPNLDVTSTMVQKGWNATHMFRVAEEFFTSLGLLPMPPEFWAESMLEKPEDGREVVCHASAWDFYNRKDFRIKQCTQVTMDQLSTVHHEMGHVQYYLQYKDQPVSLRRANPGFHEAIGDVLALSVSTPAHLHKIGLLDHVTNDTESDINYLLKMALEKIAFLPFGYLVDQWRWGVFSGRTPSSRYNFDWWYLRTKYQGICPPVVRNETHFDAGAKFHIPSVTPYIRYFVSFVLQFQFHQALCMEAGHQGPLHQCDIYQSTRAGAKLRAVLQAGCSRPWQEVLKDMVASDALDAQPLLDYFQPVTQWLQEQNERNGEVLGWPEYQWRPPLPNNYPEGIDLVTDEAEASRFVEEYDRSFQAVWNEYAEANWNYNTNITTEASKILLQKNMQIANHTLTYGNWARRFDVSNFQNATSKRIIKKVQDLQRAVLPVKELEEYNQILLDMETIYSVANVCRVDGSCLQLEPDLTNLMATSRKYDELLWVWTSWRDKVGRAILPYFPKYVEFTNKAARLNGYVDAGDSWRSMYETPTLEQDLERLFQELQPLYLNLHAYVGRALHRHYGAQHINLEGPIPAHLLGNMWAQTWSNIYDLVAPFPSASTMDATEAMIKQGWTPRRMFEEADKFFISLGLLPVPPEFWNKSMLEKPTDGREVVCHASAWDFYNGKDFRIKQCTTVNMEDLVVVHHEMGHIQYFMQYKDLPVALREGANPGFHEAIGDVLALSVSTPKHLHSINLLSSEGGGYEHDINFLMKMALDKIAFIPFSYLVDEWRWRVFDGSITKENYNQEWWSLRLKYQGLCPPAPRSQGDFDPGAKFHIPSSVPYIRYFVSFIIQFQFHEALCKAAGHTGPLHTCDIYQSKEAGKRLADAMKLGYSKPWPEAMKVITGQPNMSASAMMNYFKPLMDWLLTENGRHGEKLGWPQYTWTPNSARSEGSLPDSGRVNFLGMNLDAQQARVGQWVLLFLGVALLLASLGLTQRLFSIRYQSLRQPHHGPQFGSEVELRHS
Nature of the experiment: biochemical. The experiment is classed as tissue-based, Lung.

In the next experiment the target is Histamine H2 receptor (Homo sapiens, UniProt P25021). The experiment is classed as cell membranes, CHO-K1, Membrane. Note: in other assays of this panel Not Active means under 50% inhibition at 10 µM.
The target of experiment [6] is T2, Cysteinyl leukotriene receptor 1 (Homo sapiens, UniProt Q9Y271). Note: in other assays of this panel Not Active means under 50% inhibition at 10 µM.
T2 sequence (Q9Y271 whole entry): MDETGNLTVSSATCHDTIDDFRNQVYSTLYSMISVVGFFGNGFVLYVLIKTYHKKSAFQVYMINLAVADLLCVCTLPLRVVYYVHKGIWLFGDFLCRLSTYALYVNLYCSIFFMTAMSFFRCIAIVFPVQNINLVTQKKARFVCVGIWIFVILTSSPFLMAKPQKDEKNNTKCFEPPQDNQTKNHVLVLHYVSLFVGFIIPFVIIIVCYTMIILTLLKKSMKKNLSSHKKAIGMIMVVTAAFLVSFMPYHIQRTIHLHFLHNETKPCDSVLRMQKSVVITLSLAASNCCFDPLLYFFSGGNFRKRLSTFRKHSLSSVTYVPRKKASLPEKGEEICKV
The format is cell membranes, CHO-K1, Membrane. The following applies: cho-k1.

Histamine H2 receptor, sequence (P25021 whole entry): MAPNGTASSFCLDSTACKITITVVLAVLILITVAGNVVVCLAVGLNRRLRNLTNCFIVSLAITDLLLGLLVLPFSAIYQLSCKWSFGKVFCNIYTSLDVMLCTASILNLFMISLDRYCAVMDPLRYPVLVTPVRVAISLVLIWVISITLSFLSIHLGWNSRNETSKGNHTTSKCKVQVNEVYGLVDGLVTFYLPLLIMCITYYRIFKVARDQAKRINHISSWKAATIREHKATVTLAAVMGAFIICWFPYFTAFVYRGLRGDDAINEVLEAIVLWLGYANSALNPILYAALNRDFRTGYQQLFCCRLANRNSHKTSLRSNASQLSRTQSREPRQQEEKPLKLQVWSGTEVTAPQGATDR
5-hydroxytryptamine receptor 4, sequence (O70528 whole entry): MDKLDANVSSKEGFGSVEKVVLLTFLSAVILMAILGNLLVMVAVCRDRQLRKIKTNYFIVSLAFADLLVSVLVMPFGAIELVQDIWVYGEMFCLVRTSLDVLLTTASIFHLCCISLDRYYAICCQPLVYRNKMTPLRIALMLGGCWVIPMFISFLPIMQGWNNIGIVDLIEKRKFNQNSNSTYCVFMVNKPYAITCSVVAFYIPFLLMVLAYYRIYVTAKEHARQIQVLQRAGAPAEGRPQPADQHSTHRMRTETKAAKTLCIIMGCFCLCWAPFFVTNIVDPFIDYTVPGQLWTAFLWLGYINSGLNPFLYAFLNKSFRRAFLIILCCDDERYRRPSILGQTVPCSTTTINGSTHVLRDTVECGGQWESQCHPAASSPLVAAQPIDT

`CN1C(=O)OC(C)(C)C1=O` [TRIMETHADIONE]: the IC50 result (in experiment [1]; in experiment [2]; in experiment [3]; in experiment [4]; in experiment [5]; against Histamine H2 receptor (cho-k1)) was “Not Active” in each case. In addition, the IC50 (in general, the midpoint of a concentration-inhibition curve) in experiment [6] is on record as “Not Active”. The Ki entry in experiment [1], in experiment [3] and in experiment [4] was “Not Active” throughout.
On to `CC(O)C(=O)O` (stereo unspecified) [LACTIC ACID], for which the IC50 entry (in experiment [1]; in experiment [2]; in experiment [3]; in experiment [4]; in experiment [5]; against Histamine H2 receptor (cho-k1)) was “Not Active” in each case. In experiment [6], the IC50 entry was “Not Active”. Moreover, the Ki entry in experiment [1], in experiment [3] and in experiment [4] was “Not Active” in each case.
For the compound `CS(=O)(=O)c1ccc(C2=C(c3ccccc3)C(=O)OC2)cc1` [ROFECOXIB], the IC50 entry (in experiment [1]; in experiment [2]; in experiment [3]; in experiment [4]; in experiment [5]; at Histamine H2 receptor (cho-k1)) was “Not Active” in each case. For the same compound, in experiment [6], the IC50 entry is “Not Active”. For the same compound, the Ki entry in experiment [1], in experiment [3] and in experiment [4] was “Not Active” throughout.
Consider `C[N+]1(C)[C@@H]2C[C@@H](OC(=O)[C@H](CO)c3ccccc3)C[C@H]1[C@@H]1O[C@@H]12.[Br-]` [METHSCOPOLAMINE BROMIDE], for which the IC50 result (in experiment [1]; in experiment [2]; in experiment [3]; in experiment [4]; in experiment [5]; at Histamine H2 receptor (cho-k1)) was “Not Active” in each case. Besides, in experiment [6], the 50% inhibitory concentration (IC50) entry is “Not Active”. For the same compound, the Ki result in experiment [1], in experiment [3] and in experiment [4] was “Not Active” in each case.
`Cc1nnc(NS(=O)(=O)c2ccc(N)cc2)s1` [SULFAMETHIZOLE]: the IC50 result (in experiment [1]; in experiment [2]; in experiment [3]; in experiment [4]; in experiment [5]; against Histamine H2 receptor (cho-k1)) was “Not Active” in each case. The IC50 entry in experiment [6] is “Not Active”. Further, the inhibitory constant (Ki) result in experiment [1], in experiment [3] and in experiment [4] was “Not Active” in each case.
On to `CC(=O)O[C@]1(C(C)=O)CC[C@H]2[C@@H]3C[C@H](C)C4=CC(=O)CC[C@]4(C)[C@H]3CC[C@@]21C` [MEDROXYPROGESTERONE ACETATE], for which the IC50 result in experiment [1] is “Not Active”; in experiment [2], “Not Active”; in experiment [3] it was “Not Active”; in experiment [4], “Not Active”; in experiment [5], “Not Active”; at Histamine H2 receptor (read-out: IC50) it was 27.9 µM. For the same compound, in experiment [6], the 50% inhibitory concentration (IC50) result is “Not Active”. Moreover, the Ki (in general, the equilibrium dissociation constant of an inhibitor or competing ligand from its target) was “Not Active” in experiment [1], “Not Active” in experiment [3], “Not Active” in experiment [4] and 27.5 µM at Histamine H2 receptor (read-out: Ki).
`CC1(C)[C@H](C(=O)O)N2C(=O)C[C@H]2S1(=O)=O` [SULBACTAM]: the IC50 result (in experiment [1]; in experiment [2]; in experiment [3]; in experiment [4]; in experiment [5]; against Histamine H2 receptor (cho-k1)) was “Not Active” throughout. Further, in experiment [6], the IC50 entry was “Not Active”. Besides, the Ki result in experiment [1], in experiment [3] and in experiment [4] was “Not Active” throughout.
Regarding `O=C(O)c1cc(/N=N/c2ccc(S(=O)(=O)Nc3ccccn3)cc2)ccc1O` [SULFASALAZINE], the IC50 result (in experiment [1]; in experiment [2]; in experiment [3]; in experiment [4]; in experiment [5]; at Histamine H2 receptor (cho-k1)) was “Not Active” in each case. For the same compound, the IC50 result in experiment [6] was “Not Active”. The Ki entry in experiment [1], in experiment [3] and in experiment [4] was “Not Active” each time.
On to `CCN(CC)CCNC(=O)c1cc(Cl)c(N)cc1OC` [METOCLOPRAMIDE], for which the IC50 entry (in experiment [1]; in experiment [2]; in experiment [3]; in experiment [4]; in experiment [5]; against Histamine H2 receptor (cho-k1)) was “Not Active” throughout. Further, the IC50 entry in experiment [6] was “Not Active”. Further, the Ki entry in experiment [1], in experiment [3] and in experiment [4] was “Not Active” in each case.
On to `COC(=O)Nc1nc2ccc(C(=O)c3ccccc3)cc2[nH]1` [MEBENDAZOLE], for which the IC50 result (in experiment [1]; in experiment [2]; in experiment [3]; in experiment [4]; in experiment [5]; on Histamine H2 receptor (cho-k1)) was “Not Active” in each case. In experiment [6], the concentration for half-maximal inhibition (IC50) entry is “Not Active”. For the same compound, the Ki result in experiment [1], in experiment [3] and in experiment [4] was “Not Active” throughout.
Turning to `Cc1ccnc(NS(=O)(=O)c2ccc(N)cc2)n1` [SULFAMERAZINE], the IC50 result (in experiment [1]; in experiment [2]; in experiment [3]; in experiment [4]; in experiment [5]; against Histamine H2 receptor (cho-k1)) was “Not Active” in each case. For the same compound, the IC50 result in experiment [6] was “Not Active”. Further, the Ki result in experiment [1], in experiment [3] and in experiment [4] was “Not Active” in each case.
Take `Cc1cccc(C)c1NC(=O)C(C)N` (stereo unspecified) [TOCAINIDE]: the IC50 entry (in experiment [1]; in experiment [2]; in experiment [3]; in experiment [4]; in experiment [5]; against Histamine H2 receptor (cho-k1)) was “Not Active” in each case. For the same compound, the IC50 entry in experiment [6] is on record as “Not Active”. Moreover, the Ki result in experiment [1], in experiment [3] and in experiment [4] was “Not Active” in each case.
For the compound `CC#C[C@]1(O)CC[C@H]2[C@@H]3CCC4=CC(=O)CCC4=C3[C@@H](c3ccc(N(C)C)cc3)C[C@@]21C` [MIFEPRISTONE], the IC50 entry (in experiment [1]; in experiment [2]; in experiment [3]; in experiment [4]; in experiment [5]; on Histamine H2 receptor (cho-k1)) was “Not Active” in each case. Further, the IC50 result in experiment [6] was “Not Active”. The Ki result in experiment [1], in experiment [3] and in experiment [4] was “Not Active” in each case.
On to `C[C@]12CCC(=O)C[C@@H]1CC[C@@H]1[C@@H]2CC[C@]2(C)[C@@H](O)CC[C@@H]12` [STANOLONE], for which the IC50 result (in experiment [1]; in experiment [2]; in experiment [3]; in experiment [4]; in experiment [5]; on Histamine H2 receptor (cho-k1)) was “Not Active” throughout. For the same compound, in experiment [6], the IC50 result is recorded as “Not Active”. Besides, the Ki entry in experiment [1], in experiment [3] and in experiment [4] was “Not Active” in each case.
As to `C1CCN2C[C@@H]3C[C@@H](CN4CCCC[C@@H]34)[C@H]2C1` [SPARTEINE], the IC50 entry (in experiment [1]; in experiment [2]; in experiment [3]; in experiment [4]; in experiment [5]; against Histamine H2 receptor (cho-k1)) was “Not Active” in each case. In addition, in experiment [6], the IC50 result is “Not Active”. Moreover, the Ki entry in experiment [1], in experiment [3] and in experiment [4] was “Not Active” each time.

The record behind these values is ChEMBL document CHEMBL1909046, “DrugMatrix in vitro pharmacology data”.
